Measurements as given in ChEMBL document CHEMBL5038635, “Discovery of Salidroside-Derivated Glycoside Analogues as Novel Angiogenesis Agents to Treat Diabetic Hind Limb Ischemia” (J Med Chem, 2022).
The source made the active and inactive calls. No cut-off for these calls is given here.

Assays:
C2C12 [1] = experiment: Increase in PDGF-BB protein expression level in HIF-1 alpha silenced mouse C2C12 cells at 30 uM by Western blot analysis; format: functional, cell-based
Mus musculus [2] = experiment: Antidiabetic activity in diabetic HLI C57BL/6 mouse model assessed as effect on blood glucose level at 30 mg/kg administered intramuscularly measured after 3 days; format: functional, organism-based; conditions: time 3.0 day
C2C12 [3] = experiment: Induction proliferation of mouse C2C12 cells at 30 uM pretreated with compound in hyperglycemia condition for 12 hr followed by hypoxia condition for 24 hrs presence of MeOE2 inhibitor by EdU-incorporation assay; format: functional, cell-based; conditions: time 36.0 hrs
C2C12 [4] = experiment: Reversal of hyperglycemia-induced PDGF-BB protein level reduction in mouse C2C12 cells measured at 30 uM by Western blot analysis; format: functional, cell-based
C2C12 [5] = experiment: Induction proliferation of mouse C2C12 cells with silenced HIF-1alpha at 30 uM pretreated with compound in hyperglycemia condition for 12 hr followed by hypoxia condition for 24 hrs by EdU-incorporation assay; format: functional, cell-based; conditions: time 36.0 hrs
[6] = Octanol/Water partition coefficient, log P of the compound by HPLC-UV analysis
C2C12 [7] = experiment: Upregulation of TNFRSF12A protein expression in mouse C2C12 cells at 30 uM by Western blot analysis; format: functional, cell-based
[8] = target: Hypoxia-inducible factor 1-alpha (Mus musculus) (UniProt Q61221); experiment: Inhibition of HIF-1alpha in mouse C2C12 cells transfected with PDGF-B driven firefly luciferase gene assessed as transcriptional activity pretreated with compound for 12 hr followed by hypoxic condition for 24 hrs by dual luciferase reporter gene assay; format: cell-based; conditions: time 36.0 hrs
Sequence of Hypoxia-inducible factor 1-alpha (Mus musculus) (Q61221 whole entry): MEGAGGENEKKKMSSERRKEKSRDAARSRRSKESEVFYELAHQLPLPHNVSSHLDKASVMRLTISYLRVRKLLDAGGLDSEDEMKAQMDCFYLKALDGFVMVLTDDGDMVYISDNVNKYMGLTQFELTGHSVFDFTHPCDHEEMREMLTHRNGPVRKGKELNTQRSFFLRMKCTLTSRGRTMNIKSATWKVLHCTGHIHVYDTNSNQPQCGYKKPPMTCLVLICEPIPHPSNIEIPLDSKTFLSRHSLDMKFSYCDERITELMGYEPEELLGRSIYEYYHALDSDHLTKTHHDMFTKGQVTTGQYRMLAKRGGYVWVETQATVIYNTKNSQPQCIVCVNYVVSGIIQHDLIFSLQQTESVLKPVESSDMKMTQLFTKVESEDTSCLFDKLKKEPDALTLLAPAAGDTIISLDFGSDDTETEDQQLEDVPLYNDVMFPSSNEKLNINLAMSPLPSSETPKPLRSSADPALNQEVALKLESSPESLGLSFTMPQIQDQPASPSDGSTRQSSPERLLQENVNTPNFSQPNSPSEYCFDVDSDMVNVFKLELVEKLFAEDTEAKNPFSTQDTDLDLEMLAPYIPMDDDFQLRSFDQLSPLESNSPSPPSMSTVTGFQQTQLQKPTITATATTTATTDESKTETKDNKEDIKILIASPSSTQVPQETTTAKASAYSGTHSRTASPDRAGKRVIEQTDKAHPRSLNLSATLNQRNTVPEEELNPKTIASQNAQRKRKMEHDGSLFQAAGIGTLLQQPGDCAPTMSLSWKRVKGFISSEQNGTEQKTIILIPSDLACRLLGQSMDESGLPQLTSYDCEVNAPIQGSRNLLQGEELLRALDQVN

C2C12 [9] = experiment: Upregulation of ANG1 protein expression in mouse C2C12 cells at 30 uM by Western blot analysis; format: functional, cell-based
MOVAS-1 [10] = experiment: Angiogenesis activity in mouse MOVAS-1 cells assessed as suppression of cell migration using conditioned medium of mouse C2C12 cells with silenced HIF-1alpha treated at 30 uM under hyperglycemic condition for 12 hrs followed by hypoxia for 24 hrs in presence of PDGF-BB inhibitor CP868596 by crystal violet dye based transwell assay; format: functional; conditions: time 36.0 hrs
C2C12 [11] = experiment: Upregulation of PDGF-B protein expression in mouse C2C12 cells at 30 uM by Western blot analysis; format: functional, cell-based
Mus musculus [12] = experiment: Antidiabetic activity in diabetic HLI C57BL/6 mouse model assessed as increase in blood perfusion recovery at 30 mg/kg administered intramuscularly measured after 21 days; format: functional; conditions: time 21 day
C2C12 [13] = experiment: Upregulation of FGF18 protein expression in mouse C2C12 cells at 30 uM by Western blot analysis; format: functional, cell-based
Mus musculus [14] = experiment: Antidiabetic activity in diabetic HLI C57BL/6 mouse model assessed as effect on blood glucose level at 15 mg/kg administered intramuscular; format: functional, organism-based
C2C12 [15] = experiment: Angiogenic activity in mouse C2C12 cells assessed as reversal of hyperglycemia-induced reduction in total cell number measured after 12 to 36 hrs; format: functional, cell-based
Mus musculus [16] = experiment: Angiogenic activity in diabetic HLI C57BL/6 mouse model assessed as HIF-1alpha protein expression at 30 mg/kg, im administered for 21 days followed by surgery by Western blot analysis; format: functional, organism-based; conditions: time 21.0 day
C2C12 [17] = experiment: Apoptotic rate in hyperglycemia-treated mouse C2C12 cells assessed as late apoptotic cells at 30 uM by AnnexinV-FITC/PI staining based flow cytometric analysis (reference value: 10.44 %); format: functional
C2C12 [18] = experiment: Apoptotic rate in hyperglycemia-treated mouse C2C12 cells assessed as necrotic cells at 30 uM by AnnexinV-FITC/PI staining based flow cytometric analysis (reference value: 0.56 %); format: functional
Mus musculus [19] = experiment: Antidiabetic activity in diabetic HLI C57BL/6 mouse model assessed as PDGF-BB protein expression at 30 mg/kg, im administered for 21 days followed by surgery by Western blot analysis; format: functional, organism-based; conditions: time 21.0 day
C2C12 [20] = experiment: Upregulation of HO-1 protein expression in mouse C2C12 cells at 30 uM by Western blot analysis; format: functional, cell-based
C2C12 [21] = experiment: Apoptotic rate in mouse C2C12 cells with silenced HIF-1alpha assessed as necrotic cells at 30 uM by AnnexinV-FITC/PI staining based FACS analysis (reference value: 0.31 %); format: functional
C2C12 [22] = experiment: Angiogenesis activity in mouse C2C12 cells assessed as increase in cell migration at 30 uM under hyperglycemic condition for 12 hrs followed by hypoxia for 24 hrs presence of MeOE2 inhibitor by crystal violet dye based transwell assay; format: functional; conditions: time 36.0 hrs
C2C12 [23] = experiment: Angiogenic activity in mouse C2C12 cells assessed as reversal of hyperglycemia-induced reduction in total cell number at 300 uM measured after 24 to 36 hrs by EdU-incorporation assay; format: functional, cell-based; conditions: time 24-36 hrs
C2C12 [24] = experiment: Upregulation of ANGPTL4 protein expression in mouse C2C12 cells at 30 uM by Western blot analysis; format: functional, cell-based
[25] = Toxicity in diabetic HLI C57BL/6 mouse model assessed as effect on body weight at 15 to 100 mg/kg, im administered measured after 21 days; format: organism-based; conditions: in vivo, 504 h, dose 15-100 mg/kg, time 21 day
C2C12 [26] = experiment: Upregulation of FGF1protein expression in mouse C2C12 cells at 30 uM by Western blot analysis; format: functional, cell-based
C2C12 [27] = experiment: Increase in VEGF-A protein expression level in […] mouse C2C12 cells at 30 uM by Western blot analysis; format: functional, cell-based
[28] = Protein binding in human plasma by balanced dialysis method; format: ADME, cell-free; conditions: read-out: PPB (converted)
Mus musculus [29] = experiment: Angiogenesis activity in nondiabetic HLI C57BL/6 mouse model assessed as as increase in blood perfusion recovery at 30 mg/kg, im administered for 14 days; format: functional, organism-based; conditions: time 14.0 day
MOVAS-1 [30] = experiment: Induction proliferation of mouse MOVAS-1 assessed as increase in number of EdU-positive cells using conditioned medium of mouse C2C12 cells with silenced HIF-1alpha treated at 30 uM under hyperglycemic condition for 12 hrs followed by hypoxia for 24 hrs by EdU-incorporation assay; format: functional, cell-based; conditions: time 36.0 hrs
HUVEC [31] = experiment: Induction proliferation of human HUVEC cells assessed as increase in number of EdU-positive cells using conditioned medium of mouse C2C12 cells treated at 30 uM under hyperglycemic condition for 12 hrs followed by hypoxia for 24 hrs by EdU-incorporation assay; format: functional; conditions: time 36 hrs
HUVEC [32] = experiment: Angiogenic activity in human HUVEC cells assessed as suppression of F-actin polymerization at 30 uM using conditioned medium of mouse C2C12 cells treated at 30 uM under hyperglycemic condition for 12 hrs followed by hypoxia for 12 hrs by phalloidin staining based confocal microscopy; format: functional, cell-based; conditions: time 24.0 hrs
C2C12 [33] = experiment: Effect on PHD1 mRNA expression in mouse C2C12 cells at 30 uM by qRT-PCR analysis; format: functional, cell-based
C2C12 [34] = experiment: Apoptotic rate in mouse C2C12 cells with silenced HIF-1alpha assessed as early apoptotic cells at 30 uM by AnnexinV-FITC/PI staining based FACS analysis (reference value: 4.02 %); format: functional
[35] = Toxicity in diabetic HLI C57BL/6 mouse model assessed as lung pathology at 30 mg/kg, IM administered by HE staining based assay; format: organism-based; conditions: in vivo
MOVAS-1 [36] = experiment: Angiogenic activity in mouse MOVAS-1 cells assessed as suppression of F-actin polymerization at 30 uM using conditioned medium of mouse C2C12 cells treated at 30 uM under hyperglycemic condition for 12 hrs followed by hypoxia for 12 hrs by phalloidin staining based confocal microscopy; format: functional, cell-based; conditions: time 24.0 hrs

Compound: COc1ccc(Cc2cccc(O[C@@H]3O[C@H](CO)[C@@H](O)[C@H](O)[C@H]3O)c2)cc1
- Activity (C2C12 [1]): inactive
- Activity (Mus musculus [2]): Active
- Activity (C2C12 [3]): inactive
- Activity (C2C12 [4]): Active
- Activity (C2C12 [5]): inactive
- logP [6]: 0.971
- Activity (C2C12 [7]): Active
- inhibition [8]: Active
- Activity (C2C12 [9]): Active
- Activity (MOVAS-1 [10]): inactive
- Activity (C2C12 [11]): Active
- Activity (Mus musculus [12]): 80%
- Activity (C2C12 [13]): Active
- Activity (Mus musculus [14]): Active
- EC50 (C2C12 [15]): 12.7 µM
- Activity (Mus musculus [16]): Active
- Activity (C2C12 [17]): 3.94%
- Activity (C2C12 [18]): 0.35%
- Activity (Mus musculus [19]): Active
- Activity (C2C12 [20]): Active
- Activity (C2C12 [21]): 0.16%
- Activity (C2C12 [22]): Active
- Activity (C2C12 [23]): inactive
- Activity (C2C12 [24]): Active
- Activity [25]: Non-Toxic
- Activity (C2C12 [26]): Active
- Activity (C2C12 [27]): inactive
- fraction unbound [28]: 0.669
- Activity (Mus musculus [29]): Active
- Activity (MOVAS-1 [30]): Active
- fold change (FC) (HUVEC [31]): 2
- Activity (HUVEC [32]): Active
- Activity (C2C12 [33]): inactive
- Activity (C2C12 [34]): 3.18%
- Activity [35]: Non-Toxic
- Activity (MOVAS-1 [36]): Active
